Laboratory results: patent publication US20230143604A1, “QW DOSING OF GIP RECEPTOR AGONIST PEPTIDE COMPOUNDS AND USES THEREOF” (TAKEDA PHARMACEUTICAL COMPANY LIMITED, priority 2020, published 2023)
Read-outs that look alike come from different tables or passages of the source. Starred links: 1 amine or outer side, 2 acyl side, 3 side chain; linkers in the order of their positions; H or OH if unused. Positions of bridges follow the written chain, without caps; N, C: chain ends. Non-standard residues stand in square brackets, D forms with d. Residues, ends and D or L forms follow the SMILES beside them. Groups on a side chain read outwards from the residue. Chains are numbered I, II in the order given. *: point of attachment. C18 diacid = O=C(O)CCCCCCCCCCCCCCCCC(=O)*; C17 diacid = O=C(O)CCCCCCCCCCCCCCCC(=O)*; γGlu = O=C(O)[C@H](CCC(=O)[*:2])N[*:1]; NMeY = CN[C@@H](Cc1ccc(O)cc1)C(=O)O; AEEA = NCCOCCOCC(=O)O; Aib = CC(C)(N)C(=O)O

Tests used:
human GIPR = target: T1, human GIPR (Homo sapiens, UniProt P48546); test: Human GIPR agonist activity, intracellular cAMP accumulation; assay type: cell-based
T1 construct: HEK-293T cells overexpressing full-length human GIPR; FLAG (N); host or cells: HEK-293T
T1 sequence (P48546 22-466): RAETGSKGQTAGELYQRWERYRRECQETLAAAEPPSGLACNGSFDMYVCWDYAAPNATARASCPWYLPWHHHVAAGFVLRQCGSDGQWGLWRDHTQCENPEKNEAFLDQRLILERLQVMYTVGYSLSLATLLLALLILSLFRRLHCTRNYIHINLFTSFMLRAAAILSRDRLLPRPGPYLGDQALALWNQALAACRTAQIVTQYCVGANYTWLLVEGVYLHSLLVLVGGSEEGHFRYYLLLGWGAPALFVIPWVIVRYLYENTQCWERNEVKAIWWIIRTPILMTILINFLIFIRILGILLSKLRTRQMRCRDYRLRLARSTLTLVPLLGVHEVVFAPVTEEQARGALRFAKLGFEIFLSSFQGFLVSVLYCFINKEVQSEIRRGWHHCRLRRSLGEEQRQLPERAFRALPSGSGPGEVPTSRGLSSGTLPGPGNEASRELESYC
Experimental: Cells are cultured per the manufacturer's protocol in DMEM with 10% fetal bovine serum and 1 μg/mL puromycin and stored in frozen aliquots to be used as assay ready cells. On the day of the assay, cells are removed from frozen storage, washed two times in 1× Kreb's Ringer Buffer (Zenbio, Research Triangle Park, N.C.), and re-suspended to a concentration of 4×10^5 cells/mL in 1× Kreb's Ringer Buffer. […] Cells are incubated with test compound for 1 hr at room temperature in the dark, and cAMP accumulation is measured using the Cisbio HiRange cAMP assay kit (Bedford, Mass.) per the manufacturer's protocol. Anti-cAMP antibody and d2-cAMP tracer reagents diluted in lysis/detection buffer are incubated in the dark for 1 hr, and results are measured on an Envision plate reader (Perkin Elmer, Waltham, Mass.). Data is normalized using 1 nM GIP as 100% activity, and DMSO alone as 0% activity.

human GLP-1R = target: T2, human GLP-1R (Homo sapiens, UniProt P43220); test: Human GLP1R agonist activity, intracellular cAMP accumulation; assay type: cell-based; details: Human GLP1R cAMP EC50, HEK293T (nM), HEK-293T cells overexpressing human GLP-1R, 1 hr
T2 construct: HEK-293T cells overexpressing full-length human GLP-1R; FLAG (N); host or cells: HEK-293T
T2 sequence (P43220 24-463): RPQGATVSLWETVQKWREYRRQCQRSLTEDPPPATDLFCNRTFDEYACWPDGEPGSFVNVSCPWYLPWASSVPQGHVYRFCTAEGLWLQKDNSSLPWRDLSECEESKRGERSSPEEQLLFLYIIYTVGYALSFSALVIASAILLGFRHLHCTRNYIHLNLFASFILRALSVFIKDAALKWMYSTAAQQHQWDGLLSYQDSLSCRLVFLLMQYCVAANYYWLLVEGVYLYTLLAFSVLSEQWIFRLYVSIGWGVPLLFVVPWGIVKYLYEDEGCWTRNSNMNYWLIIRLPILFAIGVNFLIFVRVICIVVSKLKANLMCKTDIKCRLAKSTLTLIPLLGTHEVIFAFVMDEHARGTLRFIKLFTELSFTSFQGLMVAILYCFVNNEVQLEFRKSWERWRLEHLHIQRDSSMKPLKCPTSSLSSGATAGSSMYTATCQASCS
In short: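 Frozen assay-ready cells washed and resuspended at 4×10^5 cells/mL in Krebs Ringer buffer, then incubated with compound 1 hr at room temperature in the dark. cAMP read by HTRF (anti-cAMP antibody, d2-cAMP tracer). Normalised to 1 nm GLP-1 (100%) and DMSO (0%).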

[1] = Solubility in phosphate buffer pH 7.4
In short: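 3 mg of peptide treated with 100 μL portions of 200 mM phosphate buffer pH 7.4, sonicating/vortexing up to 1 min, with further buffer added until fully dissolved. Solubility then quantified by HPLC.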

[2] = Serum half-life and percentage remaining at 48 hours; assay type: in vitro ADME; details: human plasma, 500 nM peptide, 37° C.
Experimental: Human plasma (mixed gender: sodium heparin is used as anti-coagulant; pre-adjusted to pH 7.4—NB alternative species may be used) is spiked with each test peptide (500 nM) and incubated·cn=3) at 37° C. for 48 hours in a 5% CO2 environment. Aliquots are taken at 0. 1, 2, 4, 7, 24 and […] and pH adjusted to pH 3 with 20% formic acid prior to analysis. Appropriate positive control compounds will be incubated in parallel, in addition to a no plasma control, sampled at 0 and 8 hours. All samples will be treated with ice-cold acetonitrile/methanol (4:1 (v/v)) containing internal standard prior to centrifugation at 2000 g and 4° C. for 10 minutes and subjected to LC-MS/MS analysis.
The samples are analyzed by LC-MS/MS using a 6500 (or equivalent) triple quadrupole mass spectrometer (AB Sciex) coupled to an appropriate Liquid Chromatography (LC) system. Protein binding and stability values are determined via peak area ratios using multiple reaction monitoring (MRM) parameters following compound optimisation. Multiple reaction monitoring (MRM) is a highly sensitive method of targeted mass spectrometry (MS) that can be used to selectively detect and quantify peptides based on the screening of specified precursor peptide-to-fragment ion transitions.

[3] = Human plasma protein binding (PPB); assay type: in vitro ADME
In short: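 Peptides spiked at 1000 nmol/L into pooled human K2-EDTA plasma adjusted to pH 7.4, incubated 30 min at 37 °C, then ultracentrifuged at ~450,000 g, 4 °C for 3 h. Fu derived from LC-MS/MS (MRM) peak area ratios, supernatant versus plasma.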

[4] = Dog plasma protein binding (PPB); assay type: in vitro ADME; details: pH 7.4; fraction unbound; dog serum; read-out: Dog PPB (FUplasma)
In short: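 Dog serum replaced human serum, with the protocol and analysis otherwise the same as for human plasma protein binding. Values are reported as fraction unbound (Fu,plasma) expressed as a percentage.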

[5] = Pharmacokinetics in dog after IV and SC dosing; details: in vivo
Experimental: Pharmacokinetic (PK) were conducted in dog in order to determine the half-life after IV and SC dosing. The peptide was dissolved in 10% DMSO/0.09% Polysorbate/PBS pH 7.4 to a concentration of 3 nmol/mL and the animal were dose with a volume of 1 mL/kg SC or IV. Blood sample were collected at 0, 0.033, 0.083, 0.25, 0.5, 1, 2, 4, 6, 8, 12, 24, 48, 72, 96, 120, 168, 336 hours for IV dosing and 0.25, 0.5, 1, 2, 4, 6, 8, 12, 24, 48, 72, 96, 120, 168, 336 for SC dosing, EDTA-K2 was used as anticoagulant. The plasma concentration of the peptide was measured using LCMS. Allometric scaling of lipidated peptide pharmacokinetics including T1/2 and MRT is known in the art for rodent to dog and mini pig and to humans. […] See for example, Discovery and Development of Liraglutide and Semaglutide. Knudsen, L. B.; Lau, J. Frontiers in Endocrinology, 2019, vol 10, Article 155.

C57BL/6J mice = test: Oral glucose tolerance test (OGTT); assay type: in vivo; details: 3 nmol/kg s.c., 24 hours before glucose loading
In short: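 Peptide or vehicle given s.c. at 0.1, 0.3, 3 or 10 nmol/kg (peptide-dependent), 24 h before oral 50% dextrose at 5 ml/kg unless stated otherwise. Blood glucose read at 0, 15, 30 and 60 min. % inhibition = (1−(AUC cpd−AUC naïve)/(AUC veh−AUC naïve))×100.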

Dogs = assay type: in vivo; details: 10 nmol/kg s.c.
Experimental: Dogs are transferred to an observation cage (700 mm W×700 mm D×700 mm H [W×D×H], without food) on 1 day before each apomorphine challenge. The dogs are weighed by using an electronic balance then test peptide compounds and vehicle will be administrated via the subcutaneous route. Apomorphine is challenged at 8 hr after the administration and emetic events will be monitored for 1 h by video recording. The second apomorphine challenge will be 72 hr after the administration and emetic events will be recorded by the same protocol. Emesis symptoms are continuously recorded using a video camera and stored on a blue ray disc. Observation of symptoms include retching (a rhythmic contraction of the abdomen) and vomiting (vomiting behavior, including the elimination of vomitus or similar behavior). Besides, the combination of retching and vomiting is defined as emesis, and the number of episodes, latency (time elapsed from morphine administration until the onset of the first emesis symptom), duration (time elapsed between the onset of the first and final episodes of emesis), and frequency (number of animals showing emesis/number of experimental animals) of each of these symptoms is calculated. The latency in cases where emesis symptoms are not noted is taken as the maximum value (1 h for apomorphine challenge) at the end of observation. When the duration of the emesis symptoms is less than 1 min, the duration is recorded, for convenience, as 1 min.

[6] = pH 7.4, aqueous buffer, pH 7.4 Phosphate Buffer - Solubility, 200 mM Phosphate buffer pH 7.4
[7] = pH 7.4, solubility in phosphate buffer at pH 7.4, 200 mM phosphate buffer pH 7.4

Row | Compound | EC50 (human GIPR) | EC50 (human GLP-1R) | solubility [1, 6] | solubility [1, 7] | half-life at 500 nM ([2]; both sexes, pH 7.4, read-out: Serum t1/2 (converted)) | % Remaining at 48 hr ([2]; 48 hr) | fraction unbound at 30 min, 1000 nmol/L ([3]; both sexes, pH 7.4, fraction unbound, human plasma, 1000 nmol/L peptide, ultracentrifugation, read-out: Human PPB (FUplasma)) | free unbound peptide in human plasma (in words) ([3]; judged for once per week (QW) dosing) | fraction unbound at 30 min, 1000 nmol/L [4] | half-life ([5]; IV 3 nmol/kg, read-out: IV T½ (converted)) | MRT last ([5]; SC 3 nmol/kg, read-out: SC MRT 0-last) | Oral Glucose Tolerance Test Percent decrease in blood glucose AUC (%) over 60 mins (C57BL/6J mice) | % inhibition of emetic events at doses (nmol/kg) shown in dog apomorphine model (Dogs; after 8 hrs (upper)) | % inhibition of emetic events at doses (nmol/kg) shown in dog apomorphine model (Dogs; after 72 hours (lower)) | solubility ([1]; pH 7.4) | solubility ([1]; pH 7.4, aqueous buffer)
1 | I: H-[NMeY][Aib]EGTFISDYSIALDR[Aib]AQ[Aib]KFVNWLLAQSPSSGAPPPS-OH / II: {C18 diacid}-PAPAPGG (amide I:21-II:C) [Compound 103] | 0.0017 nM | 29.5 nM | ≥ 60 mg/mL | ≥ 15 mg/mL | – | – | – | – | – | – | – | – | – | – | – | –
2 | CC[C@H](C)[C@H](NC(=O)[C@H](Cc1ccccc1)NC(=O)[C@@H](NC(=O)CNC(=O)[C@H](CCC(=O)O)NC(=O)C(C)(C)NC(=O)[C@H](Cc1ccc(O)cc1)NC)[C@@H](C)O)C(=O)N[C@@H](CO)C(=O)N[C@@H](CC(=O)O)C(=O)N[C@@H](Cc1ccc(O)cc1)C(=O)N[C@@H](CO)C(=O)N[C@H](C(=O)NC(C)(C)C(=O)N[C@@H](CC(C)C)C(=O)N[C@@H](CC(=O)O)C(=O)N[C@@H](CCCNC(=N)N)C(=O)N[C@@H](CCCCNC(=O)COCCOCCNC(=O)COCCOCCNC(=O)CC[C@H](NC(=O)CC[C@H](NC(=O)CCCCCCCCCCCCCCCC(=O)O)C(=O)O)C(=O)O)C(=O)N[C@@H](C)C(=O)N[C@@H](CCC(N)=O)C(=O)NC(C)(C)C(=O)N[C@@H](CC(N)=O)C(=O)N[C@@H](Cc1ccccc1)C(=O)N[C@H](C(=O)N[C@@H](CC(N)=O)C(=O)N[C@@H](Cc1c[nH]c2ccccc12)C(=O)N[C@@H](CC(C)C)C(=O)N[C@@H](CC(C)C)C(=O)N[C@@H](C)C(=O)N[C@@H](CCC(N)=O)C(=O)N[C@@H](CCCNC(=N)N)C(=O)N1CCC[C@H]1C(=O)N[C@@H](CO)C(=O)N[C@@H](CO)C(=O)NCC(=O)N[C@@H](C)C(=O)N1CCC[C@H]1C(=O)N1CCC[C@H]1C(=O)N1CCC[C@H]1C(=O)N[C@@H](CO)C(N)=O)C(C)C)[C@@H](C)CC [Compound 15] (H-[NMeY][Aib]EGTFISDYSI[Aib]LDRK([AEEA-AEEA-γGlu-γGlu-C17 diacid])AQ[Aib]NFVNWLLAQRPSSGAPPPS-NH2) | – | – | ≥ 30 mg/mL | ≥ 15 mg/mL | > 48 h | 131.1% | 0.0017 | optimum free unbound peptide | 0.0021 | 57 h | 64 h | – | – | – | – | –
3 | CC[C@H](C)[C@H](NC(=O)[C@H](CO)NC(=O)[C@H](Cc1ccc(O)cc1)NC(=O)[C@H](CC(=O)O)NC(=O)[C@H](CO)NC(=O)[C@@H](NC(=O)[C@H](Cc1ccccc1)NC(=O)[C@@H](NC(=O)CNC(=O)[C@H](CCC(=O)O)NC(=O)C(C)(C)NC(=O)[C@@H](N)Cc1ccc(O)cc1)[C@@H](C)O)[C@@H](C)CC)C(=O)N[C@@H](C)C(=O)N[C@@H](CCCCNC(=O)CNC(=O)CNC(=O)CNC(=O)CNC(=O)CNC(=O)CCCCCCCCCCCCCCCCC(=O)O)C(=O)N[C@@H](CC(=O)O)C(=O)N[C@@H](CCCNC(=N)N)C(=O)NC(C)(C)C(=O)N[C@@H](C)C(=O)N[C@@H](CCC(N)=O)C(=O)NC(C)(C)C(=O)N[C@@H](CC(=O)O)C(=O)N[C@@H](Cc1ccccc1)C(=O)N[C@H](C(=O)N[C@@H](CC(N)=O)C(=O)N[C@@H](Cc1c[nH]c2ccccc12)C(=O)N[C@@H](CC(C)C)C(=O)N[C@@H](CC(C)C)C(=O)N[C@@H](C)C(=O)N[C@@H](CCC(N)=O)C(=O)N[C@@H](CO)C(=O)N1CCC[C@H]1C(=O)NCC(=O)O)C(C)C [Compound 128] | – | – | – | – | – | – | – | – | – | – | – | 57% (3 nmol/kg) | 56% (10 nmol/kg) | 60% (10 nmol/kg) | ≥ 15 mg/mL | ≥ 30 mg/mL
